# Measurements as given in patent US20070003531A1, “Methods for improving immunotherapy by enhancing survival of antigen-specific cytotoxic T lymphocytes” (University of Connecticut, priority 2005, published 2007).
# Entries after “also recorded” stand apart in the source; their conditions may differ.
# How the values were obtained:
# [1] = test system: c-jun phosphorylation/activation in Jurkat T cells; test: JNK activation assay in PMA/ionomycin stimulated Jurkat cells; format: cell-based, human; conditions: PMA (10 ng/ml)/ionomycin (0.5 μM); SP600125 25 μM
# Protocol: FIG. 1. […] (A) Effect of the JNK inhibitor SP600125 on AICD in the MART-127-35 epitope specific CTL. Histogram represents FACS analysis of the percent of MART-127-35 epitope specific CTLs that were tetramer positive and annexin negative after restimulation with MAGE-3271-279 control peptide (M3) pulsed T2 cells or MART-127-35 peptide (M1) pulsed T2 cells either alone or re-stimulated after pre-incubation with JNK inhibitor SP600125, p38-kinase inhibitor SB203580, ERK1/2 inhibitor PD98059 or caspase-inhibitor z-VAD-fink. MAGE-3271-279. (B) JNK activation results in phosphorylation of c-Jun during AICD in CTL that is blocked by SP600125. Immunoblots show analyses of CTL extracts probed with anti-phosphor-c-Jun, anti-c-Jun, and anti-actin antibodies. […] (i) Jurkat cells were treated with PMA+ionomycin in the absence or presence of SP600125 and JNK activation (c-Jun phosphorylation) was assessed with anti-phospho-c-Jun antibody. […] (ii) Jurkat cells were treated with Staurosporine for 1 and 4 hrs in the absence (S) or presence of caspase inhibitor, z-VAD-fmk (CI), JNK inhibitor, SP600125 (SP) or ERK1/2 inhibitor PD98059 (PD) and cleavage of PARP was detected by immunoblotting, using actin as a loading control. […] Percent annexin positive cells in all samples were quantified by FACS analysis and shown below the blot […]
# [2] = test system: MART-127-35 epitope specific CTLs; test: Chromium release microcytotoxicity assay; format: cell-based; conditions: % specific lysis of peptide loaded T2 cells; inhibitor 25 μM
# [3] = test system: Bcl family proteins in CTL; test: Western blot of Bcl family pro- and anti-apoptotic proteins in CTL after secondary stimulation; format: cell-based, human
# Protocol: FIG. 12. Effect of antigen specific secondary stimulation on mitochondrial transmembrane membrane potential (Δψm), pro- and anti-apoptotic protein and expression of cell surface molecules. (A) Differential effect on membrane polarization in Mart-1 primary CTLs (top panel) vs. Jurkat T cells (bottom panel). CTLs were incubated with T2 cells either alone or loaded with peptide. After overnight secondary exposure cells were stained with Mart-1 tetramer/CD8 and DiOC6. Histogram represents the fluorescence of DiOC6 in the gated antigen specific tetramer^+ population (top panel). Jurkat T cells were also analyzed for modulation of membrane potential after TCR-driven stimulation (bottom panel). Values represent the mean±SD of fluorescence intensity triplicates from one out of three separate experiment. *p<0.001 (One Way ANOVA). […] (C) Expression of different cell surface receptors for survival or death signal in antigen specific population upon secondary stimulation. Values on left upper corner represent the geometric mean of the fluorescence intensity for that particular marker when stimulated with T2/MAGE-3271-279 while that on right upper corner represent the geometric mean of the fluorescence intensity when stimulated with T2/MART-127-35.
# Washed cell pellets were lysed in RIPA buffer and a cytosolic fraction was prepared by spinning the lysate at 15,000 rpm. Proteins (20 μg/well) were separated on 15% SDS-PAGE, transferred onto nitrocellulose filters, probed with appropriate antibodies. Antibodies for Bcl-2, phospho Bcl-2, Bim, BCI-XL, Bax, Actin were purchased from Santa-Cruz Biotechnology, Santa-Cruz, Calif. Anti-Mcl-1 antibody was purchased from BD Pharmingen, Palo Alto, Calif. Blots were developed by HRP-tagged secondary antibody (Santa-Cruz Biotechnology, Santa-Cruz, Calif.) using a chemoluminescence kit (Amersham Biosciences, Buckinghamshire, U. K.).
# helper T cells = test: AICD in helper T cells; format: cell-based
# Description: Thus, JNK inhibitors, when administered alone or in combination with other therapeutics, have utility for the treatment of diseases, including AIDS, for which the death of helper T cells is a factor in the etiology, mechanism or progression of that disease.
smiles,measurement,setting,value
"O=C1c2ccccc2-c2n[nH]c3cccc1c23 [SP600125, anthra[1,9-cd]pyrazol-6(2H)-one]",c-Jun activation (phosphorylation) in Jurkat cells,[1],inhibitory effect; also recorded: abrogates
same,cytotoxic function of CTLs in presence of inhibitor,[2],did not affect; also recorded: does not affect
same,BCI-XL expression,[3],non-selectively up regulated
same,Bcl-2 expression,[3],non-selectively up regulated
same,Mcl-1 level,[3],selectively up regulated; also recorded: increased
same,phosphorylated Bcl-2 level,[3],selectively up regulated; also recorded: increased
same,AICD in helper T cells,helper T cells,inhibit/prevent
